Results from patent US10660334B2, “Fused bicyclic heterocycle derivatives as pesticides” (Bayer CropScience Aktiengesellschaft, priority 2016, dated 2020).

Tests used:
[1] = log P by HPLC on reversed-phase column (EEC Directive 79/831 Annex V.A8), acidic range; type: physicochemical; settings: reversed-phase C18 HPLC column; HPLC reversed-phase C18, 55° C., pH 2.7, 0.1% aqueous formic acid and acetonitrile; read-out: log P (HCOOH)
Experimental: The log P values are measured according to EEC Directive 79/831 Annex V.A8 by HPLC (high-performance liquid chromatography) on a reversed-phase column (C18). Temperature: 55° C. The LC-MS determination in the acidic range is effected at pH 2.7 with 0.1% aqueous formic acid and acetonitrile (containing 0.1% formic acid) as eluents; linear gradient from 10% acetonitrile to 95% acetonitrile. Called log P (HCOOH) in the table.

Myzus persicae [2] = assay: Myzus persicae spray test; type: in vivo; settings: foliar, 120 h, spray on Chinese cabbage leaf discs, after 5 days, read-out: efficacy (aphids killed); for pest or weed control at 20 g/ha: application rate 20 g/ha; for pest or weed control at 100 g/ha: application rate 100 g/ha
Experimental: Myzus persicae—Spray Test Solvent: 78 parts by weight of acetone • • 1.5 parts by weight of dimethylformamide Emulsifier: alkylaryl polyglycol ether To produce a suitable active ingredient formulation, 1 part by weight of active ingredient is dissolved with the specified parts by weight of solvent and made up to the desired concentration with water containing an emulsifier concentration of 1000 ppm. To produce further test concentrations, the formulation is diluted with emulsifier-containing water. Discs of Chinese cabbage leaves (Brassica pekinensis) infested by all stages of the green peach aphid (Myzus persicae) are sprayed with an active ingredient formulation of the desired concentration. After 5 days, the efficacy in % is determined. 100% means that all the aphids have been killed; 0% means that no aphids have been killed.

Phaedon cochleariae = Phaedon cochleariae spray test; type: in vivo; settings: spray on Chinese cabbage leaf discs, after 7 days
Experimental: Phaedon cochleariae—Spray Test
Solvent: 78.0 parts by weight of acetone • • 1.5 parts by weight of dimethylformamide
Emulsifier: alkylaryl polyglycol ether
To produce a suitable active ingredient formulation, 1 part by weight of active ingredient is dissolved with the specified parts by weight of solvent and made up to the desired concentration with water containing an emulsifier concentration of 1000 ppm. To produce further test concentrations, the formulation is diluted with emulsifier-containing water.
Discs of Chinese cabbage leaves (Brassica pekinensis) are sprayed with an active ingredient formulation of the desired concentration and, after drying, populated with larvae of the mustard beetle (Phaedon cochleariae).
After 7 days, the efficacy in % is determined. 100% means that all the beetle larvae have been killed; 0% means that no beetle larvae have been killed.

Myzus persicae [3] = assay: Myzus persicae oral test; type: in vivo; settings: 120 h, application rate 4 ppm, after 5 days, read-out: efficacy (aphids killed)
Experimental: Myzus persicae—Oral Test Solvent: 100 parts by weight of acetone To produce a suitable active ingredient formulation, 1 part by weight of active ingredient is dissolved with the stated parts by weight of solvent and made up to the desired concentration with water. 50 μl of the active ingredient preparation are transferred into microtitre plates and made up to a final volume of 200 μl with 150 μl of IPL41 insect medium (33%+15% sugar). Subsequently, the plates are sealed with parafilm, which a mixed population of green peach aphids (Myzus persicae) within a second microtitre plate is able to puncture and imbibe the solution. After 5 days, the efficacy in % is determined. 100% means that all the aphids have been killed; 0% means that no aphids have been killed.

Musca domestica = Musca domestica test; type: in vivo; settings: application rate 100 ppm, adult houseflies, after 2 days
Experimental: Musca domestica Test Solvent: dimethyl sulfoxide To produce a suitable active ingredient formulation, 10 mg of active ingredient are mixed with 0.5 ml of dimethyl sulfoxide, and the concentrate is diluted with water to the desired concentration. Vessels containing a sponge treated with sugar solution and the active ingredient formulation of the desired concentration are populated with 10 adult houseflies (Musca domestica). After 2 days, the kill in % is determined. 100% means that all of the flies have been killed; 0% means that none of the flies have been killed.

Lucilia cuprina = Lucilia cuprina test; type: in vivo; settings: application rate 100 ppm, L1 larvae, after 2 days
Experimental: Lucilia cuprina Test Solvent: dimethyl sulfoxide To produce a suitable active ingredient formulation, 10 mg of active ingredient are mixed with 0.5 ml of dimethyl sulfoxide, and the concentrate is diluted with water to the desired concentration. About 20 L1 larvae of the Australian sheep blowfly (Lucilia cuprina) are transferred into a test vessel containing minced horsemeat and the active ingredient formulation of the desired concentration. After 2 days, the kill in % is determined. 100% means that all the larvae have been killed; 0% means that no larvae have been killed.

Compound: CCS(=O)(=O)c1c(-c2nc3cc(C(F)(F)C(F)(F)F)ncc3n2C)nc2n1CCC(C)C2 (stereo not drawn) [Example I-034, 2-(3-Ethylsulfonyl-7-methyl-5,6,7,8-tetrahydroimidazo[1,2-a]pyridin-2-yl)-3-methyl-6-(1,1,2,2,2-pentafluoroethyl)imidazo[4,5-c]pyridine]
- chromatographic logP [1]: 2.8

Compound: CC1(C)CCn2c(nc(C(=O)O)c2Br)C1 [III-002, 3-Bromo-7,7-dimethyl-6,8-dihydro-5H-imidazo[1,2-a]pyridine-2-carboxylic acid]
- chromatographic logP [1]: 0.67

Compound: CCS(=O)(=O)c1c(-c2nc3cc(C(F)(F)F)ncc3n2C)nc2n1CCCC2 [Example I-002, 2-(3-Ethylsulfonyl-5,6,7,8-tetrahydroimidazo[1,2-a]pyridin-2-yl)-3-methyl-6-(trifluoromethyl)imidazo[4,5-c]pyridine]
- pest or weed control at 20 g/ha (Myzus persicae [2]): 90%
- pest or weed control at 100 g/ha (Myzus persicae [2]): 90%
- pest or weed control at 500 g/ha (Myzus persicae [2]; application rate 500 g/ha): 90%
- efficacy (beetle larvae killed) (Phaedon cochleariae; application rate 500 g/ha): 83%
- chromatographic logP [1]: 1.97

Compound: CCc1nc(C(F)(F)F)cc2nc(-c3nc4n(c3S(=O)(=O)CC)CCCC4)n(C)c12 [Example I-040, 4-Ethyl-2-(3-ethylsulfonyl-5,6,7,8-tetrahydroimidazo[1,2-a]pyridin-2-yl)-3-methyl-6-(trifluoromethyl)imidazo[4,5-c]pyridine]
- chromatographic logP [1]: 2.51

Compound: CCS(=O)(=O)c1c(-c2nc3cc(C(F)(F)F)ncc3n2C)nc2n1CCCC2C (stereo not drawn) [Example I-043, 2-(3-Ethylsulfonyl-8-methyl-5,6,7,8-tetrahydroimidazo[1,2-a]pyridin-2-yl)-3-methyl-6-(trifluoromethyl)imidazo[4,5-c]pyridine]
- chromatographic logP [1]: 2.31

Compound: CCS(=O)(=O)c1c(-c2nc3cc(C(F)(F)F)nc(C)c3n2C)nc2n1CCCC2 [Example I-039, 2-(3-Ethylsulfonyl-5,6,7,8-tetrahydroimidazo[1,2-a]pyridin-2-yl)-3,4-dimethyl-6-(trifluoromethyl)imidazo[4,5-c]pyridine]
- chromatographic logP [1]: 2.1

Compound: Cn1c(-c2nc3n(c2S(C)(=O)=O)CCCC3)nc2cc(C(F)(F)F)cnc21 [Example I-014]
- pest or weed control at 100 g/ha (Myzus persicae [2]): 90%
- pest or weed control at 4 ppm (Myzus persicae [3]): 100%
- efficacy (kill) (Musca domestica): 100%
- efficacy (kill) (Lucilia cuprina): 100%

Compound: Cn1c(-c2nc3n(c2Cl)CCCC3)nc2cc(C(F)(F)F)ncc21 [Example V-001, 2-(3-Chloro-5,6,7,8-tetrahydroimidazo[1,2-a]pyridin-2-yl)-3-methyl-6-(trifluoromethyl)imidazo[4,5-c]pyridine]
- chromatographic logP [1]: 2.26

Compound: CCS(=O)(=O)c1c(-c2nc3cc(C(F)(F)F)ncc3n2C)nc2n1CCCC2C(F)(F)F (stereo not drawn) [Example I-004]
- pest or weed control at 4 ppm (Myzus persicae [3]): 100%

Compound: CC1CCn2c(nc(C(=O)O)c2Br)C1 (stereo not drawn) [III-001, 3-Bromo-7-methyl-5,6,7,8-tetrahydroimidazo[1,2-a]pyridine-2-carboxylic acid]
- chromatographic logP [1]: 0.27

Compound: CC1CCn2c(nc(-c3nc4cc(C(F)(F)C(F)(F)F)ncc4n3C)c2Br)C1 (stereo not drawn) [Example V-002, 2-(3-Bromo-7-methyl-5,6,7,8-tetrahydroimidazo[1,2-a]pyridin-2-yl)-3-methyl-6-(1,1,2,2,2-pentafluoroethyl)imidazo[4,5-c]pyridine]
- chromatographic logP [1]: 3.39

Compound: CCS(=O)(=O)c1c(-c2nc3cc(C(F)(F)F)ncc3n2C)nc2n1CCCC2F (stereo not drawn) [Example I-026, 2-[3-(Ethylsulfonyl)-8-fluoro-5,6,7,8-tetrahydroimidazo[1,2-a]pyridin-2-yl]-3-methyl-6-(trifluoromethyl)-3H-imidazo[4,5-c]pyridine]
- chromatographic logP [1]: 2.11

Compound: Cn1c(-c2nc3n(c2S(C)(=O)=O)CCCC3)nc2cc(C(F)(F)F)cnc21 [Example I-018]
- pest or weed control at 20 g/ha (Myzus persicae [2]): 90%

Compound: CCS(=O)(=O)c1c(-c2nc3cc(S(=O)(=O)C(F)(F)F)cnc3n2C)nc2n1CCCC2 [Example I-021]
- pest or weed control at 20 g/ha (Myzus persicae [2]): 90%
- pest or weed control at 100 g/ha (Myzus persicae [2]): 100%
- efficacy (beetle larvae killed) (Phaedon cochleariae; application rate 100 g/ha): 100%
- pest or weed control at 4 ppm (Myzus persicae [3]): 100%

Compound: CCS(=O)(=O)c1c(-c2nc3cc(C(F)(F)F)ncc3n2C)nc2n1CCC(C)(C)C2 [Example I-031, 2-(3-Ethysulfonyl-7,7-dimethyl-6,8-dihydro-5H-imidazo[1,2-a]pyridin-2-yl)-3-methyl-6-(trifluoromethyl)imidazo[4,5-c]pyridine]
- chromatographic logP [1]: 2.51

Compound: CCS(=O)(=O)c1c(-c2nc3cc(C(F)(F)F)nc(C(C)C)c3n2C)nc2n1CCCC2 [Example I-019]
- pest or weed control at 20 g/ha (Myzus persicae [2]): 90%
- pest or weed control at 100 g/ha (Myzus persicae [2]): 90%
- pest or weed control at 4 ppm (Myzus persicae [3]): 100%

Compound: CCS(=O)(=O)c1c(-c2nc3cc(C(F)(F)F)ccc3n2C)nc2n1CCCC2 [Example I-015]
- pest or weed control at 20 g/ha (Myzus persicae [2]): 90%
- pest or weed control at 100 g/ha (Myzus persicae [2]): 90%
- efficacy (beetle larvae killed) (Phaedon cochleariae; application rate 100 g/ha): 83%
- pest or weed control at 4 ppm (Myzus persicae [3]): 100%
- efficacy (kill) (Musca domestica): 90%
- efficacy (kill) (Lucilia cuprina): 100%

Compound: CCS(=O)(=O)c1c(-c2nc3cc(C(F)(F)F)nc(C(F)F)c3n2C)nc2n1CCCC2 [Example I-025, 4-(Difluoromethyl)-2-[3-(ethylsulfonyl)-5,6,7,8-tetrahydroimidazo[1,2-a]pyridin-2-yl]-3-methyl-6-(trifluoromethyl)-3H-imidazo[4,5-c]pyridine]
- pest or weed control at 4 ppm (Myzus persicae [3]): 100%
- chromatographic logP [1]: 2.8

Compound: CCS(=O)(=O)c1c(-c2nc3cc(C(F)(F)F)ncc3n2C)nc2n1CCCC2(O)C(F)(F)F (stereo not drawn) [Example I-006]
- pest or weed control at 4 ppm (Myzus persicae [3]): 100%

Compound: CCS(=O)(=O)c1c(-c2nc3cc(SC(F)(F)F)cnc3n2C)nc2n1CCCC2 [Example I-020]
- pest or weed control at 20 g/ha (Myzus persicae [2]): 90%
- pest or weed control at 100 g/ha (Myzus persicae [2]): 90%
- efficacy (beetle larvae killed) (Phaedon cochleariae; application rate 100 g/ha): 100%
- pest or weed control at 4 ppm (Myzus persicae [3]): 100%

Compound: Cn1c(-c2nc3n(c2Br)CCC(C)(C)C3)nc2cc(C(F)(F)F)ncc21 [Example V-003, 2-(3-Bromo-7,7-dimethyl-6,8-dihydro-5H-imidazo[1,2-a]pyridin-2-yl)-3-methyl-6-(trifluoromethyl)imidazo[4,5-c]pyridine]
- chromatographic logP [1]: 3.03

Compound: Cn1c(-c2nc3n(c2S(C)(=O)=O)CCCC3)nc2cc(C(F)(F)F)ccc21 [Example I-016]
- pest or weed control at 4 ppm (Myzus persicae [3]): 100%

Compound: CCS(=O)(=O)c1c(-c2nc3cc(C(F)(F)F)ncc3n2C)nc2n1CCCC2O (stereo not drawn) [Example I-024, 3-Ethylsulfonyl-2-[3-methyl-6-(trifluoromethyl)imidazo[4,5-c]pyridin-2-yl]-5,6,7,8-tetrahydro-imidazo[1,2-a]pyridin-8-ol]
- pest or weed control at 100 g/ha (Myzus persicae [2]): 90%
- pest or weed control at 4 ppm (Myzus persicae [3]): 100%
- chromatographic logP [1]: 1.6

Compound: Cn1c(-c2nc3n(c2S(C)(=O)=O)CCCC3)nc2cc(SC(F)(F)F)cnc21 [Example I-023]
- pest or weed control at 20 g/ha (Myzus persicae [2]): 90%
- pest or weed control at 100 g/ha (Myzus persicae [2]): 90%
- pest or weed control at 4 ppm (Myzus persicae [3]): 100%

Compound: CCS(=O)(=O)c1c(-c2nc3cc([S+]([O-])C(F)(F)F)cnc3n2C)nc2n1CCCC2 (stereo not drawn) [Example I-022]
- pest or weed control at 20 g/ha (Myzus persicae [2]): 90%
- pest or weed control at 4 ppm (Myzus persicae [3]): 100%
